Assay results from publication PMC12072338, “Allosteric Modulation of GCase Enhances Lysosomal Activity and Reduces ER Stress in GCase-Related Disorders” (International Journal of Molecular Sciences, 2025).
Where two headings read alike, the source gives them in different places.

Biological target: T1, rhGCase (Cerezyme) (Homo sapiens, UniProt P04062, R534H)
T1 construct: Human full-length wild-type GCase protein (Cerezyme®, Genzyme, Naarden, Netherlands); purchased Genzyme, Naarden, Netherlands
T1 sequence (P04062 40-536 R534H): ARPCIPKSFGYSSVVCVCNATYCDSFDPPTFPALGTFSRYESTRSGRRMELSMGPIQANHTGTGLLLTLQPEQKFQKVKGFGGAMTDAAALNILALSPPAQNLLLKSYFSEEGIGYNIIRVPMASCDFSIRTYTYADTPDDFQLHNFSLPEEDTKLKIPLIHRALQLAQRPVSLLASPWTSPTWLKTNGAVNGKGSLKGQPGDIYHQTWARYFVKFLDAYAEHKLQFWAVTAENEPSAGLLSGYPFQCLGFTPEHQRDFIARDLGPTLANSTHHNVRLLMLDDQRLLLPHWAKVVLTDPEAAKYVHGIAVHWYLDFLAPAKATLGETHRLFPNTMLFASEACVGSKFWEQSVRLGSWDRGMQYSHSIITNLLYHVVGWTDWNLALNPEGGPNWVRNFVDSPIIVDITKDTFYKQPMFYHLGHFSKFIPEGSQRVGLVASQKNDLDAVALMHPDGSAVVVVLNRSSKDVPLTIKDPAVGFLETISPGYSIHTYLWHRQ
Assay: nanoDSF thermal stability of rhGCase
Type: binding
Experimental: The stabilizing effects of GT-02287 and GT-02329 on GCase were assessed by nanoDSF. rhGCase protein (Cerezyme®, Genzyme, Naarden, Netherlands) was prepared at 0.1 mg/mL in two buffers: buffer 1 (10 mmol/L Citric Acid, 20 mmol/L Na2HPO4, pH 7.0) and buffer 2 (50 mmol/L Histidine, 150 mmol/L NaCl, pH 5.0). DMSO was added to a final concentration of 2%.
Samples were loaded into nanoDSF standard capillaries and analyzed using the Prometheus NT.48 instrument (NanoTemper Technologies, Munich, Germany). The thermal unfolding of GCase was monitored by tracking intrinsic fluorescence changes in tryptophan and tyrosine residues as the temperature increased from 20 °C to 95 °C at 2 °C/min. Each condition was run in duplicate at 25 μM and 100 μM compound concentrations. Melting temperatures (Tm) were determined from the fluorescence curves, and ΔTm shifts between compound-treated and control samples were calculated. The significance of Tm shifts was assessed using two criteria: an absolute ΔTm shift greater than 1.0 °C (instrumental criterion) and an absolute ΔTm standard deviation of 0.2 °C or less (statistical criterion).

Effect on protein thermal stability at pH 5.0 (pH 5.0): demonstrated stabilization | ΔTm at 100 µM (pH 5.0, 100 µM compound, mean ± SD of two experiments, read-out: ΔTm at pH 5.0 and 100 µM): 3 °C | ΔTm at 25 µM (pH 7.0, 25 µM compound, mean ± SD of two experiments): 9.9 ± 0.2 °C | ΔTm at 100 µM (pH 7.0, 100 µM compound, mean ± SD of two experiments, read-out: ΔTm at pH 7.0 and 100 µM): 11.5 °C
Structure (SMILES): OC[C@H]1CNC[C@@H](O)[C@@H]1O [IFG, isofagomine]
